Data as given in ChEMBL document CHEMBL1129255, “Identification of a retinoic acid receptor alpha subtype specific agonist” (J Med Chem, 1996).
pKd: −log10 of the molar value.

What was measured:
[1] = target: T1, Retinoic acid receptor beta (Homo sapiens, UniProt P10826); experiment: Binding affinity for baculovirus-expressed Retinoic acid receptor RAR beta
T1 sequence (P10826 whole entry): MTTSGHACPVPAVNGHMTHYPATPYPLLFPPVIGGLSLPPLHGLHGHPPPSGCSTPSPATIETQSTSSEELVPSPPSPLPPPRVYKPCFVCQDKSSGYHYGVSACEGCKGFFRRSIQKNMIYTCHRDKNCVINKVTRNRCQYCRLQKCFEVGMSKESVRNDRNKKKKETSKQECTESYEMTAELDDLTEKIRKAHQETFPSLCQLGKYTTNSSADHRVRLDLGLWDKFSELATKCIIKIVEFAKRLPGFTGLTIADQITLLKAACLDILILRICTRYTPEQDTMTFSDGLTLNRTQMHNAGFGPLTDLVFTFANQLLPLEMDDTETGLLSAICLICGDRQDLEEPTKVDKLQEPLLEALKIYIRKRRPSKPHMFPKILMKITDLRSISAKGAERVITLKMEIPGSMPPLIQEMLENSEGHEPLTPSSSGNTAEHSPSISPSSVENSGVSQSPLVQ

[2] = target: T2, Retinoic acid receptor gamma (Homo sapiens, UniProt P13631); experiment: Binding affinity for baculovirus-expressed Retinoic acid receptor RAR gamma
T2 sequence (P13631 whole entry): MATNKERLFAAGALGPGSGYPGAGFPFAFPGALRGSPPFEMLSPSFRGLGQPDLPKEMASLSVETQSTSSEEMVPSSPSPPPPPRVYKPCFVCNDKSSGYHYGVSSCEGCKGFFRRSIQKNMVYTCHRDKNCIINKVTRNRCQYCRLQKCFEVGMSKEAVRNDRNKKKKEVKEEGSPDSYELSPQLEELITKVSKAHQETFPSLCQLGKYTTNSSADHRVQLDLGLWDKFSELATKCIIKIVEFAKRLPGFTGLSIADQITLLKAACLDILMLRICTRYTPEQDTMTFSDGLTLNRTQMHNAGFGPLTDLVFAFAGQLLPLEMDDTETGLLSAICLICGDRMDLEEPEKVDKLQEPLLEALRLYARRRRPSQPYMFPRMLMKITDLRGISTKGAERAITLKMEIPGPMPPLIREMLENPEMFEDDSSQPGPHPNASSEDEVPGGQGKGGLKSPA

[3] = target: T3, Retinoic acid receptor alpha (Homo sapiens, UniProt P10276); experiment: Binding affinity for baculovirus-expressed Retinoic acid receptor RAR alpha
T3 sequence (P10276 whole entry): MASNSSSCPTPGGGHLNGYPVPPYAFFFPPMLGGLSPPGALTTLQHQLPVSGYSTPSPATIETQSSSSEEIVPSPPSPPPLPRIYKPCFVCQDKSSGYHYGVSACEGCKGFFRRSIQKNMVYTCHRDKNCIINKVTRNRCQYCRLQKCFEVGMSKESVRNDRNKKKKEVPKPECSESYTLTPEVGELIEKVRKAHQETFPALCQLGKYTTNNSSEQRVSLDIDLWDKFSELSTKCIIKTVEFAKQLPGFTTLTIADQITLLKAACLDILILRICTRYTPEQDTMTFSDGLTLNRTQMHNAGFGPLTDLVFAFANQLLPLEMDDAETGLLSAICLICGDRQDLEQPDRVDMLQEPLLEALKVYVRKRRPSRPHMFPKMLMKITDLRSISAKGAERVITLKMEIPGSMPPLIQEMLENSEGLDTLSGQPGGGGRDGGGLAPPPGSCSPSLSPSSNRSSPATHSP

SMILES	pKd [1]	pKd [2]	pKd [3]
CC1(C)CCC(C)(C)c2c1cc(C(=O)Nc1ccc(C(=O)O)c(F)c1)c(O)c2Br	5.52	< 4.52	8.36
CC1(C)CCC(C)(C)c2c1cc(C(=O)Nc1cc(F)c(C(=O)O)c(F)c1)c(O)c2Br	4.76	< 4.52	8.08
